Measured values published in patent publication US8119635B2, “Diazabicyclic central nervous system active agents” (Abbott Laboratories, priority 2000, dated 2012).
Where a name gives a salt, the structure may show the parent alone. Read-outs that look alike come from different tables or passages of the source.

What was measured:
mice = assay: Mouse hot plate paradigm (analgesia); type: in vivo; details: ip, 0.5 h, intraperitoneal, dosed 30 minutes prior to testing, hot plate 55° C., latency until the tenth jump, read-out: (MED) minimally effective dose, mouse hot plate
Procedure: An in vivo protocol was utilized to determine the effectiveness of nicotinic acetylcholine receptor ligands as analgesic agents in the mouse hot plate paradigm.
Separate groups of mice, (n=8/group) were utilized for each dose group. All drugs were administered by the intraperitoneal route of administration. Test drugs were dissolved in water to make a 6.2 mM stock solution. Animals were dosed with this solution (10 mL/kg body weight) for a 62 micromol/kg dose. Lower doses were administered similarly, following serial dilution of the stock solution in half-log increments. Animals were dosed 30 minutes prior to testing in the hot plate. The hot-plate utilized was an automated analgesia monitor (Model #AHP16AN, Omnitech Electronics, Inc. of Columbus, Ohio). The temperature of the hot plate was maintained at 55° C. and a cut-off time of 180 seconds was utilized. Latency until the tenth jump was recorded as the dependent measure. An increase in the tenth jump latency relative to the control was considered an effect.

[1] = target: T1, neuronal nicotinic acetylcholine receptors (Rattus norvegicus, UniProt P09483+P12390); assay: Binding of [3H]-cytisine to neuronal nicotinic acetylcholine receptors, crude synaptic membranes from whole rat brain
T1 construct: crude synaptic membrane preparations from whole rat brain; from tissue; host or cells: whole rat brain, crude synaptic membranes
T1 sequence (P09483 31-630): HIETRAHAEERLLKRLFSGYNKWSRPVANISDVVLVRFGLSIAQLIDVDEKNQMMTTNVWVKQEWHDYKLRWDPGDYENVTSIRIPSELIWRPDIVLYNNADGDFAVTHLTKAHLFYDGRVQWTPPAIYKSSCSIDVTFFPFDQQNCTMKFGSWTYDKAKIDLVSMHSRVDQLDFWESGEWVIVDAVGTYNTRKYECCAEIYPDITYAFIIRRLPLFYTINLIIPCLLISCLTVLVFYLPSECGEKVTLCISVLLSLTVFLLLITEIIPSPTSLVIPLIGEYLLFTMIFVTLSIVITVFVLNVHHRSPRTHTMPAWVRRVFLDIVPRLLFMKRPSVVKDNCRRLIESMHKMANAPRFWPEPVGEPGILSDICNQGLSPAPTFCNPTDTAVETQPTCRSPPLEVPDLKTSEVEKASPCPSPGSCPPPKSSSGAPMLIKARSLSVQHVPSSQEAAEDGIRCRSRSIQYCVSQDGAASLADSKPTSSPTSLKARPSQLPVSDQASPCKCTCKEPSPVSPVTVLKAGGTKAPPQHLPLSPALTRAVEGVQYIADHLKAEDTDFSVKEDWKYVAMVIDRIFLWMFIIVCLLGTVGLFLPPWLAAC
T1 sequence (P12390 25-500): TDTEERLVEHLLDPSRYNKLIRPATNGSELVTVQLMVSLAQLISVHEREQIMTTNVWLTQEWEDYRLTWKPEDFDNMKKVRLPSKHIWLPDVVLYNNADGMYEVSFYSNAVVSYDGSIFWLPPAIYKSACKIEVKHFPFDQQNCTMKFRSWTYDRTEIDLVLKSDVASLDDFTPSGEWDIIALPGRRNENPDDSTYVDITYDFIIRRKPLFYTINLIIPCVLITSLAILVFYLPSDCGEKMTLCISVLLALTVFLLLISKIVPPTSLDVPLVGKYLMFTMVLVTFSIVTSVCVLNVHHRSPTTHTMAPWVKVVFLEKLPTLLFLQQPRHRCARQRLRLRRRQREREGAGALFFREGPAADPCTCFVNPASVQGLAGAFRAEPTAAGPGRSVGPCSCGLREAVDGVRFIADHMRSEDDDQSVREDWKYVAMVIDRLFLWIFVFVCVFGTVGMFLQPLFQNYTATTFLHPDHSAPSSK
Procedure: The In Vitro protocols for determination of nicotinic acetylcholine channel receptor binding potencies of ligands were determined as follows.
Washed membranes were stored at −80° C. prior to use. Frozen aliquots were slowly thawed and resuspended in 20 volumes of buffer (containing: 120 mM NaCl, 5 mM KCl, 2 mM MgCl2, 2 mM CaCl2 and 50 mM Tris-Cl, pH 7.4 @[…]). After centrifuging at 20,000×g for 15 minutes, the pellets were resuspended in 30 volumes of buffer.
The test compounds were dissolved in water to make 10 mM stock solutions. Each solution was then diluted (1:100) with buffer (as above) and further taken through seven serial log dilutions to produce test solutions from 10^−5 to 10^−11 M.
Samples were incubated for 60 minutes at 4° C., then rapidly filtered through Whatman GF/B filters presoaked in 0.5% polyethyleneimine using 3×4 mL of ice-cold buffer. The filters are counted in 4 mL of Ecolume® (ICN). Nonspecific binding was determined in the presence of 10 μM (−)-nicotine and values were expressed as a percentage of total binding. IC50 values were determined with the RS-1 (BBN) nonlinear least squares curve-fitting program and IC50 values were converted to Ki values using the Cheng and Prusoff correction (Ki=IC50/(1+[ligand]/Kd of ligand).

Male Sprague-Dawley rats = assay: Formalin test (analgesia); type: in vivo; details: Rattus norvegicus, ip, intraperitoneally 5 minutes before injection of 50 μL 5% formalin into rear paw, nocifensive behaviors, read-out: (MED) minimally effective dose, formalin test
Procedure: Another in vivo protocol utilized to determine the effectiveness of nicotinic acetylcholine receptor ligands as analgesic agents was the formalin test.
Male Sprague-Dawley rats (Charles River, Portage, Mich.) weighing 200 to 400 grams were used for all experiments. After a 20 minute period of acclimation to individual cages, 50 μL of a 5% formalin solution was injected subcutaneous into the dorsal aspect of one of the rear paws and the rats were then returned to the clear observation cages suspended above mirror panels. […] Phase 1 of the formalin test was defined as the period of time immediately after injection of formalin until 10 minutes after the formalin injection (i.e., 0-10 minutes after formalin). Phase 2 was defined as the 20 minute period from 30 to 50 minutes after formalin injection. The investigator recorded nocifensive behaviors in the injected paw of four animals during the session by observing each animal for one 15 second observation period during each 1 minute interval. Nocifensive behaviors recorded included flinching, licking or biting the injected paw. In dose-response studies, the test compound (or saline) was administered intraperitoneally 5 minutes before injection of formalin.

| SMILES | minimal effective dose (mice) | Ki [1] | minimal effective dose (Male Sprague-Dawley rats) | melting point | Ki ([1]; [3H]-CYT 1.25 nM, whole rat brain membranes, 60 minutes at 4° C., IC50 converted to Ki by Cheng and Prusoff correction, read-out: Average Ki) |
| --- | --- | --- | --- | --- | --- |
| Cc1cc(N2C[C@@H]3CCN[C@@H]3C2)cnc1Cl [Example 26, (3aS,6aS)-5-(6-chloro-5-methyl-3-pyridinyl)octahydropyrrolo[3,4-b]pyrrole hydrochloride] | 19 µmol/kg | 0.62 nM | – | – | – |
| Cc1cc(N2C[C@H]3CNC[C@H]3C2)cnc1Cl [Example 11, cis-2-(6-chloro-5-methyl-3-pyridinyl)octahydropyrrolo[3,4-c]pyrrole dihydrochloride] | 6.2 µmol/kg | 0.04 nM | – | – | – |
| COc1cncc(N2C[C@H]3CNC[C@H]3C2)c1 [Example 7, cis-2-(5-methoxy-3-pyridinyl)octahydropyrrolo[3,4-c]pyrrole dihydrochloride] | 19 µmol/kg | 0.08 nM | 6.2 µmol/kg | – | – |
| c1cncc(N2CC[C@H]3CN[C@H]3C2)c1 (relative stereo) [Example 33, (cis)-3-(3-pyridinyl)-3,8-diazabicyclo[4.2.0]octane tris(4-methylbenzenesulfonate)] | 1.9 µmol/kg | 0.02 nM | 0.62 µmol/kg | – | – |
| CCCOc1cncc(N2C[C@H]3CNC[C@H]3C2)c1 [Example 9, cis-2-(5-propoxy-3-pyridinyl)octahydropyrrolo[3,4-c]pyrrole semi(fumarate)] | 19 µmol/kg | 0.04 nM | – | – | – |
| Cl.Clc1ccc(N2C[C@H]3CNC[C@H]3C2)cn1 [Example 3, cis-2-(6-chloro-3-pyridinyl)octahydropyrrolo[3,4-c]pyrrole hydrochloride] | 6.2 µmol/kg | 0.2 nM | – | 230 to 236 °C (dec.) | – |
| Clc1ccc(N2C[C@H]3CCN[C@H]3C2)cn1 (relative stereo) [Example 13, cis-5-(6-chloro-3-pyridinyl)octahydropyrrolo[3,4-b]pyrrole hydrochloride] | 6.2 µmol/kg | 1.5 nM | 0.62 µmol/kg | – | – |
| c1cncc(N2C[C@H]3CCN[C@H]3C2)c1 [Example 28, (3aR,6aR)-5-(3-pyridinyl)octahydropyrrolo[3,4-b]pyrrole dihydrochloride] | 6.2 µmol/kg | – | 1.9 µmol/kg | – | 0.34 nM |
| CCOc1cncc(N2C[C@H]3CNC[C@H]3C2)c1 [Example 8, cis-2-(5-ethoxy-3-pyridinyl)octahydropyrrolo[3,4-c]pyrrole dihydrochloride] | 6.2 µmol/kg | 0.04 nM | – | 226 to 227 °C | – |
| Clc1ccc(N2C[C@@H]3CCN[C@@H]3C2)cn1 [Example 15, (3aS,6aS)-5-(6-chloro-3-pyridinyl)octahydropyrrolo[3,4-b]pyrrole dihydrochloride] | 19 µmol/kg | 6.3 nM | > 6.2 µmol/kg | – | – |
| Cl.Cl.c1ccc2ncc(N3C[C@H]4CNC[C@H]4C3)cc2c1 [Example 5, cis-2-(3-quinolinyl)octahydropyrrolo[3,4-c]pyrrole dihydrochloride] | – | 1.7 nM | – | > 260 °C | – |
| Clc1ccc(N2C[C@H]3CCCN[C@H]3C2)cn1 (relative stereo) [Example 22, cis-6-(6-chloro-3-pyridinyl)octahydro-1H-pyrrolo[3,4-b]pyridine dihydrochloride] | 19 µmol/kg | 11 nM | 1.9 µmol/kg | – | – |
| Cl.Cl.c1cncc(N2C[C@H]3CNC[C@H]3C2)c1 [Example 1, cis-2-(3-pyridinyl)octahydropyrrolo[3,4-c]pyrrole dihydrochloride] | 19 µmol/kg | 0.12 nM | 0.62 µmol/kg | 250 to 252 °C (dec.) | – |
| COc1cncc(N2C[C@H]3CCN[C@H]3C2)c1 [Example 29, (3aR,6aR)-5-(5-methoxy-3-pyridinyl)octahydropyrrolo[3,4-b]pyrrole dihydrochloride] | 19 µmol/kg | 0.35 nM | 6.2 µmol/kg | – | – |
| COc1cc(N2C[C@H]3CNC[C@H]3C2)cnc1Cl [Example 10, cis-2-(6-chloro-5-methoxy-3-pyridinyl)octahydropyrrolo[3,4-c]pyrrole dihydrochloride] | 6.2 µmol/kg | 0.03 nM | 1.9 µmol/kg | – | – |
| CN1C[C@@H]2CN(c3cccnc3)C[C@@H]2C1.Cl [Example 2, cis-2-methyl-5-(3-pyridinyl)octahydropyrrolo[3,4-c]pyrrole hydrochloride] | – | 26 nM | – | 207 to 209 °C | – |
| Cl.Cl.FC(F)(F)COc1cncc(N2C[C@H]3CNC[C@H]3C2)c1 [Example 12, cis-2-[5-(2,2,2-trifluoroethoxy)-3-pyridinyl]octahydropyrrolo[3,4-c]pyrrole dihydrochloride] | 62 µmol/kg | 0.05 nM | – | 233 to 234 °C (dec.) | – |
| Clc1ccc(N2C[C@H]3CCN[C@H]3C2)cn1 [Example 14, (3aR,6aR)-5-(6-chloro-3-pyridinyl)octahydropyrrolo[3,4-b]pyrrole dihydrochloride] | 1.9 µmol/kg | 1.1 nM | 0.62 µmol/kg | – | – |
| Clc1cc(N2C[C@H]3CCN[C@H]3C2)cnc1Cl [Example 24, (3aR,6aR)-5-(5,6-dichloro-3-pyridinyl)octahydropyrrolo[3,4-b]pyrrole hydrochloride] | 6.2 µmol/kg | 0.16 nM | 6.2 µmol/kg | – | – |
| N#Cc1cc(N2C[C@H]3CNC[C@H]32)cnc1Br [Example 76, 2-bromo-5-[(1R,5S)-3,6-diazabicyclo[3.2.0]hept-6-yl]nicotinonitrile fumarate] | – | 0.28 nM | 1.9 µmol/kg | – | – |
| Brc1cncc(N2C[C@H]3CCN[C@H]3C2)c1 [Example 36, (3aR,6aR)-5-(5-bromo-3-pyridinyl)octahydropyrrolo[3,4-b]pyrrole dihydrochloride] | – | 0.17 nM | 6.2 µmol/kg | – | – |
| c1cncc(N2C[C@H]3CCCN[C@H]3C2)c1 (relative stereo) [Example 23, cis-6-(3-pyridinyl)octahydro-1H-pyrrolo[3,4-b]pyridine dihydrochloride] | 62 µmol/kg | 4.1 nM | 0.62 µmol/kg | – | – |
| Cc1cc(N2C[C@H]3CCN[C@H]3C2)cnc1Cl [Example 27, (3aR,6aR)-5-(6-chloro-5-methyl-3-pyridinyl)octahydropyrrolo[3,4-b]pyrrole hydrochloride] | 1.9 µmol/kg | 0.1 nM | – | – | – |
